Source: ChEMBL document CHEMBL1201862, “PubChem BioAssay data set” (2004)
Activity calls are given as the source filed them.

Columns and labels:
[1] = target: T1, Apoptotic protease-activating factor 1 (Homo sapiens, UniProt O14727); assay: SAR analysis of small molecule Activators of Apaf-1 in a Fluorescent assay.; assay type: functional; settings: read-out: EC50_Mean;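 note: caspase-3 cleavage of fluorogenic Rh110 DEVD substrate downstream of apoptosome activation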
T1 sequence (O14727 whole entry): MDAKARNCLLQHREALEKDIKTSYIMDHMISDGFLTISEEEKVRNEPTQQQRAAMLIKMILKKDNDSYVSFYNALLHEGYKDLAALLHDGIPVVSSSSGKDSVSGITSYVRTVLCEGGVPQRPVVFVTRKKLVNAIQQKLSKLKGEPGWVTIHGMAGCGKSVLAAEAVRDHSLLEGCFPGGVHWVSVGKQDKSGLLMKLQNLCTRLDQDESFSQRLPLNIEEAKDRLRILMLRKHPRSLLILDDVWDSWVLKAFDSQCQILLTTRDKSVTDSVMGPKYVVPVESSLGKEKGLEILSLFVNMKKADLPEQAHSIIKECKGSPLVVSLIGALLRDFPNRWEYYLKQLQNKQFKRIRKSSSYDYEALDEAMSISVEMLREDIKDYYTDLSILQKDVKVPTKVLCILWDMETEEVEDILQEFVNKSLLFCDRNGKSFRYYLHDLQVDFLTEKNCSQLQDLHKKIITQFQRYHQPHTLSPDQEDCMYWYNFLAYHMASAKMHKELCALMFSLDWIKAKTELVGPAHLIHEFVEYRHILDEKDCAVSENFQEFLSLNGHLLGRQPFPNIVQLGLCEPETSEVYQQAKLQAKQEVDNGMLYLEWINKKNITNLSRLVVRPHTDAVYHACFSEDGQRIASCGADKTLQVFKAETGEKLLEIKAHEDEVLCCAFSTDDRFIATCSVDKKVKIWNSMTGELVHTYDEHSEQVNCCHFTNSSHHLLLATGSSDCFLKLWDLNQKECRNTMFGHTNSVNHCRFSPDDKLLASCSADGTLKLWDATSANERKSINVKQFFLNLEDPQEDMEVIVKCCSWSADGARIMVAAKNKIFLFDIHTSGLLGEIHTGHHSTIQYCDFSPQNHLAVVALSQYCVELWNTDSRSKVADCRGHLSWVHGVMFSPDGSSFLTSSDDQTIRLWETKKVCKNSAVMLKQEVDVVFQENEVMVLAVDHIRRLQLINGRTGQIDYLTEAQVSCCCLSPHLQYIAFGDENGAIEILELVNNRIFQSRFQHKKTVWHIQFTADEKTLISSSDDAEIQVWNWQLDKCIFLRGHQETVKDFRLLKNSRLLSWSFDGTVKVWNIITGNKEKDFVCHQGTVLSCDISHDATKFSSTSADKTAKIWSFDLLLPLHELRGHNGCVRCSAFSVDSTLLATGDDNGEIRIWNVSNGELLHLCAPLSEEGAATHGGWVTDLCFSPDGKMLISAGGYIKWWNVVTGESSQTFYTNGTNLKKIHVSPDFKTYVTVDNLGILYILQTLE

[2] = target: T2, High affinity choline transporter 1 (Homo sapiens, UniProt Q9GZV3); assay: CHT inhibitors, dose response, cell-based, 10-point CRC, membrane potential dye (AID 588401); assay type: functional;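 note: membrane potential dye fluorescence of choline-evoked depolarization via CHT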
T2 sequence (Q9GZV3 whole entry): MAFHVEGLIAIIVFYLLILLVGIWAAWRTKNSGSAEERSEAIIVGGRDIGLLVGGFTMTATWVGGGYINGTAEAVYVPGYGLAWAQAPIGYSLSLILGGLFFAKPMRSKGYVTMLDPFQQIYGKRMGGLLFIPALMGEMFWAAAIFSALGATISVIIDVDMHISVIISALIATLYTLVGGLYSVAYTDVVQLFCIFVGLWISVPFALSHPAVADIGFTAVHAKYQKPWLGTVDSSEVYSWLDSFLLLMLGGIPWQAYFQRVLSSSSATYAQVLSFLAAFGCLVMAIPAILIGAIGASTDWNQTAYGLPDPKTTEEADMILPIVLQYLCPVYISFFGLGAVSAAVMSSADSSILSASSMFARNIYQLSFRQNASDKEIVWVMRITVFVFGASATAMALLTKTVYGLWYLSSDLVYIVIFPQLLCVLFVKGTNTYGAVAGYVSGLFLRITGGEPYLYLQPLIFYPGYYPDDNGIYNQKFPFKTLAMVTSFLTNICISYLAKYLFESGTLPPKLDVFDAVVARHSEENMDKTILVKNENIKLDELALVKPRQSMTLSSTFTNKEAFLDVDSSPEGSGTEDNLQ

[3] = target: T2, High affinity choline transporter 1; assay: CHT inhibitors, dose response, cell-based, 5-point CRC, membrane potential dye (AID 504840); assay type: functional
[4] = target: Melanin-concentrating hormone receptor 1 (Homo sapiens, UniProt Q99705); assay: Late-stage fluorescence-based counterscreen for antagonists of the G-protein coupled receptor 7 (GPR7): cell-based dose response assay to identify antagonists of the melanin-concentrating hormone receptor 1 (MCHR1) Set 5.; assay type: functional
[5] = target: T3, Polyadenylate-binding protein 1 (Homo sapiens, UniProt P11940); assay: PABP1 MLLE–PAM2 binding inhibitor potency, dose response, biochemical, fluorescence polarization, FITC-PAM2 peptide (AID 602259); assay type: functional; settings: read-out: IC50_Mean
[6] = target: T3, Polyadenylate-binding protein 1; assay: PABP1 MLLE–PAM2 interaction inhibitors, dose response, miRNA deadenylation inhibitor project, biochemical, fluorescence polarization, Cy5-PAM2 peptide, secondary (AID 602260); assay type: functional; settings: read-out: IC50_Mean
[7] = target: Troponin, cardiac muscle (Homo sapiens, UniProt P19429+P45379+P63316); assay: Fluorescence-based biochemical high throughput dose response assay for activators of the calcium sensitivity of cardiac Regulated Thin Filaments (RTF). [Related pubchem assays (depositor defined):AID493008, AID493018, AID504382, AID504383]; assay type: protein-complex assay
[8] = target: T4, Rac GTPase-activating protein 1 (Homo sapiens, UniProt Q9H0H5); assay: MgcRacGAP GTPase-activating activity inhibitors, confirmation, biochemical, ADP Hunter fluorescence, primary and confirmatory (AID 624330); assay type: functional
T4 sequence (Q9H0H5 whole entry): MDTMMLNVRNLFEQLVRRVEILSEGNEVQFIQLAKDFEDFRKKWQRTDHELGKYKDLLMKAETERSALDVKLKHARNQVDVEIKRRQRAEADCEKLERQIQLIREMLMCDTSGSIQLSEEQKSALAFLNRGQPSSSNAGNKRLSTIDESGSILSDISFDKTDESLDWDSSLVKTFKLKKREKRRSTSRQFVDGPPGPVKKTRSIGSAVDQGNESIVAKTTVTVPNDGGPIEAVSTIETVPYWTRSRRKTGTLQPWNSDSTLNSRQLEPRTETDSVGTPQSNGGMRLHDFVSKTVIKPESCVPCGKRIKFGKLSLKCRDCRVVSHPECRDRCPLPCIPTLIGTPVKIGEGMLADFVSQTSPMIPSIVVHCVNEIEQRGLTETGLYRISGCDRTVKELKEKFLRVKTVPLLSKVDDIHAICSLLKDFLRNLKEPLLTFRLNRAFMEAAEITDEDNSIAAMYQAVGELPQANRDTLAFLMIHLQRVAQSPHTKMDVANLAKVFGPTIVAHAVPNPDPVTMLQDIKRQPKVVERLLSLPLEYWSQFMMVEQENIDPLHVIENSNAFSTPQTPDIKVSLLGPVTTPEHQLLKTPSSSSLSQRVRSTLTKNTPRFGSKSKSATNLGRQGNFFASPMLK

[9] = target: Heat shock protein HSP 90-alpha (Homo sapiens, UniProt P07900); assay type: functional, organism-based
[10] = target: T5, CAAX prenyl protease 2 (Homo sapiens, UniProt Q9Y256); assay: human Rce1 protease inhibitors, dose response, biochemical, yeast membranes, quenched-peptide fluorescence, cherry-pick (AID 588849)
T5 sequence (Q9Y256 whole entry): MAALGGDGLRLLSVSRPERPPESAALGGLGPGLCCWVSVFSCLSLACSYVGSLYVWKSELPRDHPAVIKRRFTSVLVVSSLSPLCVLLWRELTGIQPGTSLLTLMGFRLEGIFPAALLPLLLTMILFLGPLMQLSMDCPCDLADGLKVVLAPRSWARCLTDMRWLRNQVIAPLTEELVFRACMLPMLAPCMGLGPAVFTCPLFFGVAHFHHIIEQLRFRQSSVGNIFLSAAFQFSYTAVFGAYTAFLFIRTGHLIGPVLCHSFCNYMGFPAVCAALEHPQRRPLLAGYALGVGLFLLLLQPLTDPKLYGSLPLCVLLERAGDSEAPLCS

[11] = target: T6, DNA repair protein RAD52 homolog (Homo sapiens, UniProt P43351); assay type: functional, biochemical
T6 sequence (P43351 whole entry): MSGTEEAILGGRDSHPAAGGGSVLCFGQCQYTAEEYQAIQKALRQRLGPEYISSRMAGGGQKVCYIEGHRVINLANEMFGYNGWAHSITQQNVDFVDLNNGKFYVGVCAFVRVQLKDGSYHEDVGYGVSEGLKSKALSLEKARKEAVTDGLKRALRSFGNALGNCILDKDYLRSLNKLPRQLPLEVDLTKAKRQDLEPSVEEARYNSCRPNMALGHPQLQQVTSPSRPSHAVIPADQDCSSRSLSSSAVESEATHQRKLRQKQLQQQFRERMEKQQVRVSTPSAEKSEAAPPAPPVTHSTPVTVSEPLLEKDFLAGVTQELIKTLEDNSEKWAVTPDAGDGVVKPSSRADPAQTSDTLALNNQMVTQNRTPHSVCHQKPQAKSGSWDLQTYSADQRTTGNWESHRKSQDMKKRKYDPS

[12] = target: T7, CAAX prenyl protease 2 (Saccharomyces cerevisiae S288c, UniProt Q03530); assay type: biochemical
T7 sequence (Q03530 whole entry): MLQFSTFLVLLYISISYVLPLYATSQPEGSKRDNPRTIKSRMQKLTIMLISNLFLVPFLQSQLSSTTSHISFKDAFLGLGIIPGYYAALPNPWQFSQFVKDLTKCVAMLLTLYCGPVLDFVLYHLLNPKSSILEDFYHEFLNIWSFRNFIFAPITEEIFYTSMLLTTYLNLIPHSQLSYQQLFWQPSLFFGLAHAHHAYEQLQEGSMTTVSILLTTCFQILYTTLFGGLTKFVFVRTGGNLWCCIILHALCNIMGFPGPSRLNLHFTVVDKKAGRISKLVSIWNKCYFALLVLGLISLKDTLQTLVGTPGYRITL

[13] = target: T8, Histone-lysine N-methyltransferase NSD2 (Homo sapiens, UniProt O96028); assay type: biochemical
T8 sequence (O96028 whole entry): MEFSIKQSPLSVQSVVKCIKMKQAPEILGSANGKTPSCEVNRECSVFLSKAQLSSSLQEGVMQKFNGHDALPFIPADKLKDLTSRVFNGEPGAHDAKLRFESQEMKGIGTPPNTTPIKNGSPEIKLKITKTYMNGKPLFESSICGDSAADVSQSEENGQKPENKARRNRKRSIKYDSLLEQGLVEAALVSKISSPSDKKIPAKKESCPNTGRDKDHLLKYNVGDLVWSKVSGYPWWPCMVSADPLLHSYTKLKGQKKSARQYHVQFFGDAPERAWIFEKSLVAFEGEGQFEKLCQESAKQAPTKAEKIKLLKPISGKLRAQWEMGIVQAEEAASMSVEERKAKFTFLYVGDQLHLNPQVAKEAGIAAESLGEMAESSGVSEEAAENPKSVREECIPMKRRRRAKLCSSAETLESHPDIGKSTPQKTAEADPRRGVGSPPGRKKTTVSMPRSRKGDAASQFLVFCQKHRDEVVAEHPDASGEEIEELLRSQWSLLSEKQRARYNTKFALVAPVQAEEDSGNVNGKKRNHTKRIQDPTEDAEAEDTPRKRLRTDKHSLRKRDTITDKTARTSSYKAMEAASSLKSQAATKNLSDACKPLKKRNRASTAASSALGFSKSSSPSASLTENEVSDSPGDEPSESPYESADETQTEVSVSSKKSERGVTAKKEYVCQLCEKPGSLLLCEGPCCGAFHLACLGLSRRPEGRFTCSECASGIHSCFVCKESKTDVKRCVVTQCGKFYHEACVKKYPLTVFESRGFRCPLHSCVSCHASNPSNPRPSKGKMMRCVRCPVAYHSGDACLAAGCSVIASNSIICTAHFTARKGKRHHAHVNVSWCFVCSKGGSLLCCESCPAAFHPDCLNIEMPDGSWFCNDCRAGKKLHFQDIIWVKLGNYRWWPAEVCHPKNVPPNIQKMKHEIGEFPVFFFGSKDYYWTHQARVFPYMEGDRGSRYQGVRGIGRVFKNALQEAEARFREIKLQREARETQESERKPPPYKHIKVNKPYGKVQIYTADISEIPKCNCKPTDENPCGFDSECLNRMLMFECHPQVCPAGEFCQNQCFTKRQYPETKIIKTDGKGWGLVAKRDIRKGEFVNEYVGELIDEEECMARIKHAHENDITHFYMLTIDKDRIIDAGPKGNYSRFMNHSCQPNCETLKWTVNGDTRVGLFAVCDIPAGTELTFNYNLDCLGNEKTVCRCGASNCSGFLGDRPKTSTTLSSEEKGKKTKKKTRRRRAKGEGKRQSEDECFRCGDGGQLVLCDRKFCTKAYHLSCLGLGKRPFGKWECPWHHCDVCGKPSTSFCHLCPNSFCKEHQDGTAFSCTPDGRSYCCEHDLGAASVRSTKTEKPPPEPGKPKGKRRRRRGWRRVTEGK

Chain of Melanin-concentrating hormone receptor 1 (Q99705 whole entry): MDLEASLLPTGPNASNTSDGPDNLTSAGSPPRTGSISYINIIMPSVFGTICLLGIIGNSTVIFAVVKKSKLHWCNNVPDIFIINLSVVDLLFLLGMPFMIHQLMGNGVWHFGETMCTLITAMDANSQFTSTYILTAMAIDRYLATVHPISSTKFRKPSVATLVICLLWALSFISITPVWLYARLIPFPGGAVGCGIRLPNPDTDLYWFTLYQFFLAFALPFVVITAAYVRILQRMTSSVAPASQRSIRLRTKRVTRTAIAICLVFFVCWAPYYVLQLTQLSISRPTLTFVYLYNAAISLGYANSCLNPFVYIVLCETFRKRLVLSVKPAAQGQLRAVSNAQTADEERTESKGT
T3 sequence (P11940 whole entry): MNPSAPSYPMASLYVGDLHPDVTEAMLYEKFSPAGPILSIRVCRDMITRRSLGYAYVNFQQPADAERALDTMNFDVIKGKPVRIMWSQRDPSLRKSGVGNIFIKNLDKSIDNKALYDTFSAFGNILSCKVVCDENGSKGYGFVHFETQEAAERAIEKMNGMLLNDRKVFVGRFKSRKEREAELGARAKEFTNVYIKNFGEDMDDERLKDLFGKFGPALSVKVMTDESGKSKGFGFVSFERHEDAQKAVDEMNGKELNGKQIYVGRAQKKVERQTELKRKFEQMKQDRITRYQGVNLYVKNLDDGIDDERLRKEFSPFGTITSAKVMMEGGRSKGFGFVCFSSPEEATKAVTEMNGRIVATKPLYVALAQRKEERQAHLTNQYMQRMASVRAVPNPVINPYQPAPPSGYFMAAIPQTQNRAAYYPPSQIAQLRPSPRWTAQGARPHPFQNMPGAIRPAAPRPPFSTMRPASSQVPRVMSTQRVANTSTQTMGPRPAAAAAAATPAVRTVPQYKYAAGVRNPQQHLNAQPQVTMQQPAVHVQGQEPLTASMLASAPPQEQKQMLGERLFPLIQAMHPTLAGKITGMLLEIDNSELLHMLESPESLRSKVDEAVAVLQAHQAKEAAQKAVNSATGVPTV

Structure (SMILES): COc1cc(Cl)c(C)cc1NC(=O)CCS(=O)(=O)c1ccc(Cl)cc1
- EC50 [1]: > 100 µM (inactive)

Structure (SMILES): O=C1CC2(CC(c3ccc(F)cc3)=NO2)C(=O)N1c1cccc(Cl)c1 (centres undefined)
- EC50 [1]: > 100 µM (inactive)

Structure (SMILES): O=C(NCC(c1ccco1)N1CCCCC1)c1cccc(NS(=O)(=O)c2ccc(Br)cc2)c1 (centres undefined)
- IC50 [2]: 3.36 µM (active)
- IC50 [3]: 6.92 µM (active)

Structure (SMILES): COc1cc(Oc2c(Cl)cnn(Cc3cccc4ccccc34)c2=O)cc(OC)c1OC
- IC50 [4]: 3.22 µM (active)

Structure (SMILES): CN1c2ccccc2C(O)=C(C(S)=Nc2ccc(F)c(Cl)c2)S1(=O)=O
- IC50 [5]: > 66 µM (inactive)
- IC50 [6]: > 66 µM (inactive)
- IC50 [2]: 3.55 µM (active)
- EC50 [7]: > 71.5 µM (inactive)
- IC50 [3]: 4.79 µM (active)

Structure (SMILES): O=[S@]1Oc2ccccc2-c2ccccc21
- IC50 [8]: 76 µM (active)
- AC50 [9]: 2.2 µM (active)

Structure (SMILES): CCC(Oc1ccccc1)C(=O)Nc1ccc(S(=O)(=O)NCC2CCCO2)cc1 (centres undefined)
- IC50 [2]: 11.2 µM (active)
- IC50 [3]: 10.5 µM (active)

Structure (SMILES): COc1ccc(Oc2c(Cl)cnn(-c3nc4ccccc4c(=O)c4ccccc34)c2=O)cc1
- IC50 [4]: 0.707 µM (active)

Structure (SMILES): CCN(CC)CCCN(Cc1cc2cc3c(cc2[nH]c1=O)OCO3)C(=S)NCCCN(C)C
- AC50 [10]: 10.5 µM (active)
- AC50 [11]: 5.22 µM (active)
- AC50 [12]: 16.4 µM (active)
- AC50 [13]: 9.07 µM (active)
